According to ChEMBL document CHEMBL1154350 (Bioorg Med Chem Lett, 2009):
Calls of active or inactive are those of the source. The rule behind the calls is not given here.

How the values were obtained:
[1] = biological target: T1, Succinyl-diaminopimelate desuccinylase (Haemophilus influenzae (strain ATCC 51907 / DSM 11121 / KW20 / Rd), UniProt P44514); test: Inhibition of Haemophilus influenzae recombinant DapE
T1 sequence (P44514 whole entry): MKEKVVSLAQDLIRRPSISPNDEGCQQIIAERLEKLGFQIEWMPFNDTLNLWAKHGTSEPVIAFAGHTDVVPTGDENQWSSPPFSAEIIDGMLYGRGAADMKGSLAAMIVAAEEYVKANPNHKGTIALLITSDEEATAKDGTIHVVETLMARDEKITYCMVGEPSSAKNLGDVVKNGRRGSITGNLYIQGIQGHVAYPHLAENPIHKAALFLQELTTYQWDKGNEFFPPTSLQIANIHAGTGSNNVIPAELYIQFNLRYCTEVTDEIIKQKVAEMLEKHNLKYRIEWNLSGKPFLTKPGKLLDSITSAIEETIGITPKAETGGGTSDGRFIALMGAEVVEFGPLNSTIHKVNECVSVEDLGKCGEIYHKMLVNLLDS

[2] = biological target: T1, Succinyl-diaminopimelate desuccinylase; test: Inhibition of Haemophilus influenzae recombinant DapE by non-competitive binding assay
[3] = biological target: T1, Succinyl-diaminopimelate desuccinylase; test: Inhibition of Haemophilus influenzae recombinant DapE by competitive binding assay
Escherichia coli [4] = test: Antibacterial activity against Escherichia coli at 1 mg by antibiotic plate assay; format: functional, organism-based
Escherichia coli [5] = test: Antibacterial activity against Escherichia coli at 5 mg by antibiotic plate assay; format: functional, organism-based
Escherichia coli [6] = test: Antibacterial activity against Escherichia coli at 20 mg by antibiotic plate assay; format: functional, organism-based

| Compound | IC50 [1] | also measured |
| --- | --- | --- |
| O=C(O)c1cccc(B(O)O)c1 | > 10000 µM | – |
| CCOC(=O)[C@H](CCc1ccccc1)N[C@@H](C)C(=O)N1CCC[C@H]1C(=O)O | > 1000 µM | – |
| O=C(NO)OCc1ccccc1 | > 1000 µM | – |
| C[C@H](CS)C(=O)N1CCC[C@H]1C(=O)O | – | Activity (Escherichia coli [4]): Active; Activity (Escherichia coli [5]): Active; Activity (Escherichia coli [6]): Active |
| O=C(O)CCP(=O)(O)O | 1620 µM | Ki [1]: 800 µM |
| NC(=S)Nc1ccccc1 [PHENYLTHIOUREA] | > 100 µM | – |

Continued, in another order:

| IC50 [1] | Compound | also measured |
| --- | --- | --- |
| ~10000 µM | CCCCB(O)O [BUTYL BORONIC ACID] | – |
| 50 µM | CC(C)(S)[C@@H](N)C(=O)O [PENICILLAMINE] | – |
| > 1000 µM | CC(=O)NO [ACETOHYDROXAMIC ACID] | – |
| 92 µM | OB(O)c1cccs1 | Ki [2]: 67 µM |
| 13.7 µM | CC(C)(S)[C@H](N)C(=O)O | Ki [3]: 4.6 µM |
| 43 µM | O=C(O)CCCS | – |
| > 10000 µM | O=C(O)c1ccc(B(O)O)cc1 | – |
| 34 µM | O=C(O)c1cccc(S)c1 | – |
